{
  "source": "patent US20080318954A1",
  "about": "“Compounds” (Cyclacel Limited, priority 2004, published 2008)",
  "key": {"CDK7/cyclin H": {"molecular_target": "T1, CDK7/cyclin H (Homo sapiens, UniProt P50613)", "T1 construct": "His6 (N); made in house; host or cells: Sf9 insect cells (baculovirus)", "T1 sequence (P50613 whole entry, species assumed)": "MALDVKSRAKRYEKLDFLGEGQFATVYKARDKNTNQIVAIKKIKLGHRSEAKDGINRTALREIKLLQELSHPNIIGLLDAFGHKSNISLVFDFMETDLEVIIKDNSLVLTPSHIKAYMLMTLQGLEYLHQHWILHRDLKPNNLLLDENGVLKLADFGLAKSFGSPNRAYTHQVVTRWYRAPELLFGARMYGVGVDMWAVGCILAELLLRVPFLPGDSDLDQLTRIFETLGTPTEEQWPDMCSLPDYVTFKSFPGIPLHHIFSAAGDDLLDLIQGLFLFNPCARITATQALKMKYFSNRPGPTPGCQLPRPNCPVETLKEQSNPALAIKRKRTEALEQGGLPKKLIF", "T1 sequence (P51946 whole entry partner, species assumed)": "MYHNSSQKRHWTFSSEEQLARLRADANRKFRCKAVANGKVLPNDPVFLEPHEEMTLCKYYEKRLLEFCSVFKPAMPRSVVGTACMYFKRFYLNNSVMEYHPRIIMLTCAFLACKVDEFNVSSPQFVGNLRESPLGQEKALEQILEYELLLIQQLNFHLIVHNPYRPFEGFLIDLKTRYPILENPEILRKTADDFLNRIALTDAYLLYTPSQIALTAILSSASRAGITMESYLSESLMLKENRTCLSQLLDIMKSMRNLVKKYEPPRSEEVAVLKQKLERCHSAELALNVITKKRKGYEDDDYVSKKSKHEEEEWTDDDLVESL", "experiment": "CDK7/cyclin H inhibition constant", "type": "biochemical", "experimental": "CDK4/cyclin D1, CDK1/cyclin B, CDK2/cyclin E, CDK2/cyclin A, CDK9/cyclin T1 and CDK7/cyclin H, all with a His6 tag on the N-terminus, were expressed in Sf9 insect cells using an appropriate baculovirus construct. Sf9 culture (1.6×10^6 cells/mL) was infected (MOI of 3) for two days. The cells were harvested by low speed centrifugation and the protein was purified from the insect cell pellet by metal affinity chromatography. In short: the insect cell pellet was lysed in Buffer A (10 mM Tris-HCl pH 8.0, 150 mM NaCl, 0.02% NP-40, 5 mM β-mercaptoethanol, 20 mM NaF, 1 mM Na3VO4, and Sigma Protease Inhibitor Cocktail) by sonication. The soluble fraction was cleared by centrifugation and loaded onto Ni-NTA-Agarose (Qiagen). Non-bound protein was washed off with 300 mM NaCl, 5-15 mM imidazole in buffer A and the bound protein was eluted with buffer A supplemented with 250 mM imidazole. The purified proteins were extensively dialyzed against storage buffer (20 mM HEPES pH 7.4, 50 mM NaCl, 2 mM DTT, 1 mM EDTA, 1 mM EGTA, 0.02% NP-40, 10% v/v glycerol) and stored at −70° C.\nIntrinsic inhibition constants (Ki) for example compound XIV against a number of Ser/Thr kinases were determined and are summarized in Table 3."}, "[1]": {"system": "glycogen synthase activity in L6 rat myocytes", "experiment": "Glycogen synthase (GS) assay in L6 rat myocytes", "type": "cell-based", "experimental": "Rat skeletal muscle myoblasts L6/G8.C5 were seeded at 2.4×10^5 cells per 10 cm dish in DMEM 10% foetal calf serum (FCS), containing penicillin/streptomycin. When 90% confluence was reached the medium was exchanged with α MEM, supplemented with 2%\nFCS and penicillin/streptomycin. Medium was refreshed every 48 hours and 4-7 days later the myocytes were formed.\nCells on 10 cm dishes (Human Embryonic Kidney (HEK) 293 cells, L6 rat myocytes, or 3T3 mouse adipocytes) were treated with different concentrations of GSK3-inhibitors or DMSO vehicle for 90 min. […] Lysates were assayed for glycogen synthase activity in buffer (50 mM Tris-HCl, pH 7.8, 20 mM EDTA, 25 mM NaF, 5 mM DTT, 1% glycogen, 0.3 mM UDP-glucose and 0.06 μCi of [^14C]-UDP-glucose in the presence of 0.1 or 10 mM glucose-6-phosphate. The reaction was carried out for 30 min at 30° C. 70 μL of the reaction mixture (total volume 90 μL) were transferred to a GFC 96-well filter plate (bottom sealed with foil), containing 140 μL 96% ethanol. The GFC plate was incubated for 1 h on ice and than washed with 66% ethanol. To each well 100 μL scintillant liquid was added and the radioactivity of the samples was measured using a scintillation counter (Topcount, HP). Data are expressed as -fold increase in glycogen synthase activity ratios over those of control samples."}, "[2]": {"system": "β-catenin-LEF/TCF transcriptional activity in HEK293 cells", "experiment": "β-Catenin-LEF/TCF regulated reporter gene assay", "type": "cell-based, human", "settings": "up to 10 μM", "from_the_text": "Furthermore, the effect of compound XIV on the β-catenin-dependent transcriptional activity, as measured in a luciferase based reporter gene assay, was studied.\nHEK293 cells were transfected with either β-catenin-LEF/TCF-sensitive or β-catenin-LEF/TCF-insensitive reporter vector (Upstate Biotechnology, Inc.) using Lipofectamine Plus reagent (GibcoBRL) according to the manufacturer's instructions. The next day, cells were trypsinized, washed into serum-free medium, counted and seeded at 40,000 cells per well in a 96-well plate. Subsequent to cell attachment, LiCl or GSK-3 inhibitor compound were added to the medium to the required concentrations. Control cells were DMSO vehicle treated. 16 h after inhibitor addition, cells were analyzed for luciferase activity using the Steady-Glo Luciferase assay system (Promega) according to the manufacturer's instructions."}, "MKK1": {"molecular_target": "T2, MKK1 (Homo sapiens, UniProt Q02750)", "T2 construct": "Dundee University (panel)", "T2 sequence (Q02750 whole entry, species assumed)": "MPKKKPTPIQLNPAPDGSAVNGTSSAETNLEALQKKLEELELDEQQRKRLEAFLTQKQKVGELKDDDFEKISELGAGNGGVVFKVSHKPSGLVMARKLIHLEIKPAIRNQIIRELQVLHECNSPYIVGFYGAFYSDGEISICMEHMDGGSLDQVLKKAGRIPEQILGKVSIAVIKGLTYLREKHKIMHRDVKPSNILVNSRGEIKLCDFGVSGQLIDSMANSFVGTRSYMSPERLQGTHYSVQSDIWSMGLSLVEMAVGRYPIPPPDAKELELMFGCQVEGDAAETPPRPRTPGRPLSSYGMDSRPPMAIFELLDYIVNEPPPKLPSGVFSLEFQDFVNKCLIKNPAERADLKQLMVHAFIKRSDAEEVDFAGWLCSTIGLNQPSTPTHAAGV", "experiment": "Protein kinase panel selectivity screen, MKK1", "type": "biochemical", "settings": "1 μM compound; [ATP] 5 μM", "experimental": "(§1) The names of the 29 kinases comprising the selectivity screen, as well as the ATP concentrations used in each kinase case, are given in Table 5. The kinase assays were carried out as described previously.\n(§2) Compound XIV at a concentration of 1 μM was screened in the 29-kinase panel (Dundee University) and the results are shown bellow in Table 6."}, "SAPK2a/p38": {"molecular_target": "T3, SAPK2a/p38 (Homo sapiens, UniProt Q16539)", "T3 construct": "Dundee University (panel)", "T3 sequence (Q16539 whole entry)": "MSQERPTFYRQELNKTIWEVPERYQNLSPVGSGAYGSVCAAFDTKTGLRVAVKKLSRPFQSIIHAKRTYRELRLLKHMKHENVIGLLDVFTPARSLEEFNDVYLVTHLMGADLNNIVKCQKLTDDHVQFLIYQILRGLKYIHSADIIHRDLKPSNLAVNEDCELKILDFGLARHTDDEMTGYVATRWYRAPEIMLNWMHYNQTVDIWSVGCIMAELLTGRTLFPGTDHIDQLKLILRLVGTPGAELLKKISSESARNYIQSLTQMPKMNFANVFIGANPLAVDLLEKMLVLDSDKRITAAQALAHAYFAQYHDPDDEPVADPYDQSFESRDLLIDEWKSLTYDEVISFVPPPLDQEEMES", "experiment": "Protein kinase panel selectivity screen, SAPK2a/p38", "type": "biochemical", "settings": "1 μM compound; [ATP] 50 μM", "experimental": "as §1, §2"}, "SAPK3/p38g": {"molecular_target": "T4, SAPK3/p38g (Homo sapiens, UniProt P53778)", "T4 construct": "Dundee University (panel)", "experiment": "Protein kinase panel selectivity screen, SAPK3/p38g", "type": "biochemical", "settings": "1 μM compound; [ATP] 5 μM", "experimental": "as §1, §2"}, "SAPK4/p38d": {"molecular_target": "T5, SAPK4/p38d (Homo sapiens, UniProt O15264)", "T5 construct": "Dundee University (panel)", "T5 sequence (O15264 whole entry)": "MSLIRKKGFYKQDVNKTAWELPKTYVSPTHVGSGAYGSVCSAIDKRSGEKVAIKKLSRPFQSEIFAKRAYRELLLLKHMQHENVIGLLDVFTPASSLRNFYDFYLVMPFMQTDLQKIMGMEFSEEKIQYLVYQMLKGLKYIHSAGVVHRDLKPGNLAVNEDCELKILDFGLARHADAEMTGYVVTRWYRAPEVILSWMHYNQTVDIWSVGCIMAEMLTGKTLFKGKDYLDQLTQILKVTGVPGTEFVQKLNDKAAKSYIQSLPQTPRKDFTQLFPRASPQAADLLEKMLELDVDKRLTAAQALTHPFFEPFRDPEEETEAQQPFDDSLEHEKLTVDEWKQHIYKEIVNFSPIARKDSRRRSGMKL", "experiment": "Protein kinase panel selectivity screen, SAPK4/p38d", "type": "biochemical", "settings": "1 μM compound", "experimental": "as §1, §2"}, "MAPKAP-K1a": {"molecular_target": "T6, MAPKAP-K1a (Homo sapiens, UniProt Q15418)", "T6 construct": "Dundee University (panel)", "T6 sequence (Q15418 whole entry, species assumed)": "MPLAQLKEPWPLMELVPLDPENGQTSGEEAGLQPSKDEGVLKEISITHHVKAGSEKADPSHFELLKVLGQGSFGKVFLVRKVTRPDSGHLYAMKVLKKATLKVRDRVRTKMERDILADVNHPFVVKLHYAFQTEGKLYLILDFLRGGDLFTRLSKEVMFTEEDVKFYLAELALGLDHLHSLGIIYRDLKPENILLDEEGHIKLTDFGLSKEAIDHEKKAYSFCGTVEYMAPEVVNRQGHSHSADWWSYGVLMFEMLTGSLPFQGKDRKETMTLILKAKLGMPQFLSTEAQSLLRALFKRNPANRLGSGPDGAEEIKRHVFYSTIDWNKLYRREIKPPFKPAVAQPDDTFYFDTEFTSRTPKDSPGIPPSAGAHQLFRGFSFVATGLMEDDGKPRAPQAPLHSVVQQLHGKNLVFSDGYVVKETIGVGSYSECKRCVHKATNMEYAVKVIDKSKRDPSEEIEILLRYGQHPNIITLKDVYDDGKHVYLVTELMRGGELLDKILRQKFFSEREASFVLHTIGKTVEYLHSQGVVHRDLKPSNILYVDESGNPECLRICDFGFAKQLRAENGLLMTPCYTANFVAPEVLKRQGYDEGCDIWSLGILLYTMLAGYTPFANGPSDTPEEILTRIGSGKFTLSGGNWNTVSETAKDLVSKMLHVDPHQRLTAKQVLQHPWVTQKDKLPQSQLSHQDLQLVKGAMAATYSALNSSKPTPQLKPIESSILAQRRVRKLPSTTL", "experiment": "Protein kinase panel selectivity screen, MAPKAP-K1a", "type": "biochemical", "settings": "1 μM compound; [ATP] 50 μM", "experimental": "as §1, §2"}, "MSK1": {"molecular_target": "T7, MSK1 (Homo sapiens, UniProt O75582)", "T7 construct": "Dundee University (panel)", "T7 sequence (O75582 whole entry, species assumed)": "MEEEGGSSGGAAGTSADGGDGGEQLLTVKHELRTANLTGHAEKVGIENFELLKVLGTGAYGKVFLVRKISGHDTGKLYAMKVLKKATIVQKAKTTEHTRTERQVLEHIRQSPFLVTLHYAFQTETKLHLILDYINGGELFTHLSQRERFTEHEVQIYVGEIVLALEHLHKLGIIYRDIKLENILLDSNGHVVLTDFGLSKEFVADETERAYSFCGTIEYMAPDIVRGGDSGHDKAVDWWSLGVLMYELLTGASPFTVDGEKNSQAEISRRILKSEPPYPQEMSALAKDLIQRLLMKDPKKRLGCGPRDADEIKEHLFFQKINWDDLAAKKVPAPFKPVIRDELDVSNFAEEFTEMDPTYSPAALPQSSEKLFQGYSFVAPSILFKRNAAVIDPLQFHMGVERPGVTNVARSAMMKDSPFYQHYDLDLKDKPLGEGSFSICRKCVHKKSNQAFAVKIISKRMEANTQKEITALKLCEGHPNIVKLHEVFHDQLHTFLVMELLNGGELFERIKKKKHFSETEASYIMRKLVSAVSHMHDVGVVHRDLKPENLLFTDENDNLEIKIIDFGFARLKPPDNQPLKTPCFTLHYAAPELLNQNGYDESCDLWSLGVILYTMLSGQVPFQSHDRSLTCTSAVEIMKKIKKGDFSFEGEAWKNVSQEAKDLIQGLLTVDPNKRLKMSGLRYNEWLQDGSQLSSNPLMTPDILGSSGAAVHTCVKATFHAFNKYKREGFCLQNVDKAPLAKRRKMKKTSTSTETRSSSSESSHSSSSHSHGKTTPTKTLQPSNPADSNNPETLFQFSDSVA", "experiment": "Protein kinase panel selectivity screen, MSK1", "type": "biochemical", "settings": "1 μM compound; [ATP] 20 μM", "experimental": "as §1, §2"}, "PRAK": {"molecular_target": "T8, PRAK (Homo sapiens, UniProt Q8IW41)", "T8 construct": "Dundee University (panel)", "T8 sequence (Q8IW41 whole entry, species assumed)": "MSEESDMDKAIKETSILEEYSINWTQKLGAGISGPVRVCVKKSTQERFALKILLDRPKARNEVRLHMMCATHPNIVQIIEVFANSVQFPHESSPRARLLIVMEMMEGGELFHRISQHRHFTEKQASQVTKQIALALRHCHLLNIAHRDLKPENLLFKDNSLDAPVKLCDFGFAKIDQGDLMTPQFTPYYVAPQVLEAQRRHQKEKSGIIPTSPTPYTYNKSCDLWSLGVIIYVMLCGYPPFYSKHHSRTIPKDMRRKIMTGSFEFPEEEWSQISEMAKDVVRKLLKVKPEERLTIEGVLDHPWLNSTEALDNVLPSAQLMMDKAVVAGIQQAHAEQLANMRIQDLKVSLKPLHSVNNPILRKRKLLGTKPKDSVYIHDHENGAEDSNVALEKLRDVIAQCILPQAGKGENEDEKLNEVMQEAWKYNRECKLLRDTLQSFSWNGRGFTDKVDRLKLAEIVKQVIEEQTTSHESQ", "experiment": "Protein kinase panel selectivity screen, PRAK", "type": "biochemical", "settings": "1 μM compound; [ATP] 20 μM", "experimental": "as §1, §2"}, "PDK1": {"molecular_target": "T9, PDK1 (Homo sapiens, UniProt O15530)", "T9 construct": "Dundee University (panel)", "T9 sequence (O15530 whole entry)": "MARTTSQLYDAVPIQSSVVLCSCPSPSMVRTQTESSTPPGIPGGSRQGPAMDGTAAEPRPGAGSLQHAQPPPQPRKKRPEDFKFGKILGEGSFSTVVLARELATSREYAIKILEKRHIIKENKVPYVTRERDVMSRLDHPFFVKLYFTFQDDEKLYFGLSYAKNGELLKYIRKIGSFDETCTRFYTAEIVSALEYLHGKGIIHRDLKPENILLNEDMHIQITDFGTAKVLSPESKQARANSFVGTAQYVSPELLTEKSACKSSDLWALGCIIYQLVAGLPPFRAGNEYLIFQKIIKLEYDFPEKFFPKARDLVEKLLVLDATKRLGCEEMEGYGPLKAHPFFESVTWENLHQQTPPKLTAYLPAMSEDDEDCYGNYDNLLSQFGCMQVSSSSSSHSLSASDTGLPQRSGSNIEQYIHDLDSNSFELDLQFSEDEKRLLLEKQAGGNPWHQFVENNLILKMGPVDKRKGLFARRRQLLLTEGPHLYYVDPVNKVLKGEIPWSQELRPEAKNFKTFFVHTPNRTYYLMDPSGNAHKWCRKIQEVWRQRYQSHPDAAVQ", "experiment": "Protein kinase panel selectivity screen, PDK1", "type": "biochemical", "settings": "1 μM compound; [ATP] 20 μM", "experimental": "as §1, §2"}, "PHK": {"molecular_target": "T10, PHK (Oryctolagus cuniculus, UniProt P00518)", "T10 construct": "Dundee University (screening panel)", "experiment": "Protein kinase panel selectivity screen, PHK", "type": "biochemical", "settings": "1 μM compound; [ATP] 20 μM", "experimental": "as §1, §2"}, "CK1": {"system": "CK1", "experiment": "Protein kinase panel selectivity screen, CK1", "type": "biochemical", "settings": "1 μM compound; [ATP] 20 μM", "experimental": "as §1, §2"}, "NEK6": {"molecular_target": "T11, NEK6 (Homo sapiens, UniProt Q9HC98)", "T11 construct": "Dundee University (screening panel)", "T11 sequence (Q9HC98 whole entry, species assumed)": "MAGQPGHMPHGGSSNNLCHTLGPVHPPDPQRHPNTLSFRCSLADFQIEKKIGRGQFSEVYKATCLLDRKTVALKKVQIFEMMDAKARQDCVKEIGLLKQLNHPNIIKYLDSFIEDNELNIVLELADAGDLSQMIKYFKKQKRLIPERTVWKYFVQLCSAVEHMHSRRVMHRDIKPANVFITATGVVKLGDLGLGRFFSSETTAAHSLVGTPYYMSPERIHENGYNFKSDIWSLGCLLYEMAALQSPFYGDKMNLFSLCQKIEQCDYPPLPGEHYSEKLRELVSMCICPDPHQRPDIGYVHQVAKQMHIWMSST", "experiment": "Protein kinase panel selectivity screen, NEK6", "type": "biochemical", "settings": "1 μM compound; [ATP] 50 μM", "experimental": "as §1, §2"}},
  "data": [
    {"smiles": "Clc1ccc(Nc2nccc(-c3nccs3)n2)cn1", "note": "[Compound XIV, (6-Chloro-pyridin-3-yl)-(4-thiazol-2-yl-pyrimidin-2-yl)-amine]", "values": [
      {"measurement": "Ki", "setting": "CDK7/cyclin H", "result": "> 50", "unit": "µM"},
      {"measurement": "Fold selectivity for GSK3 over CDK7/cyclin H", "setting": "CDK7/cyclin H; from Ki", "result": ">3,125 fold"},
      {"measurement": "EC50", "setting": "[1]; Rattus norvegicus, L6 myocytes, from dose-response curves, read-out: EC50 activation of glycogen synthase", "result": "4 ± 1.5", "unit": "µM"},
      {"measurement": "Activity of glycogen synthase (fractional velocity)", "setting": "[1]; rat myocyte cells, ratio of activity at 0.1 and 10 mM glucose-6-phosphate", "result": "increased the activity of glycogen synthase"},
      {"measurement": "β-catenin transcriptional activity (luciferase reporter)", "setting": "[2]", "result": "No induction"},
      {"measurement": "activity at 1 µM", "setting": "MKK1", "result": "83 ± 4", "unit": "%"},
      {"measurement": "activity at 1 µM", "setting": "SAPK2a/p38", "result": "84 ± 7", "unit": "%"},
      {"measurement": "activity at 1 µM", "setting": "SAPK3/p38g", "result": "88 ± 3", "unit": "%"},
      {"measurement": "inhibition at 1 µM", "setting": "SAPK4/p38d", "result": "~40", "unit": "%"},
      {"measurement": "activity at 1 µM", "setting": "SAPK4/p38d; [ATP] 5 μM", "result": "91 ± 9", "unit": "%"},
      {"measurement": "activity at 1 µM", "setting": "MAPKAP-K1a", "result": "60 ± 1", "unit": "%"},
      {"measurement": "activity at 1 µM", "setting": "MSK1", "result": "90 ± 6", "unit": "%"},
      {"measurement": "activity at 1 µM", "setting": "PRAK", "result": "83 ± 3", "unit": "%"},
      {"measurement": "activity at 1 µM", "setting": "PDK1", "result": "85 ± 5", "unit": "%"},
      {"measurement": "activity at 1 µM", "setting": "PHK", "result": "120 ± 7", "unit": "%"},
      {"measurement": "% Activity CK1", "setting": "CK1", "result": "69 ± 1", "unit": "%"},
      {"measurement": "activity at 1 µM", "setting": "NEK6", "result": "87 ± 6", "unit": "%"}
    ]}
  ]
}
